Reference: article PMC3178264 (Nature chemical biology, 2009)
Values belong to the compound of their own block, whether it stands above or below them.

Experiments:
[1] = cited from earlier work
[2] = cited from earlier work; remark: listed apart in the source
human UNG = human UNG (Homo sapiens, UniProt P13051); assay type: biochemical
human UNG, sequence (P13051 whole entry): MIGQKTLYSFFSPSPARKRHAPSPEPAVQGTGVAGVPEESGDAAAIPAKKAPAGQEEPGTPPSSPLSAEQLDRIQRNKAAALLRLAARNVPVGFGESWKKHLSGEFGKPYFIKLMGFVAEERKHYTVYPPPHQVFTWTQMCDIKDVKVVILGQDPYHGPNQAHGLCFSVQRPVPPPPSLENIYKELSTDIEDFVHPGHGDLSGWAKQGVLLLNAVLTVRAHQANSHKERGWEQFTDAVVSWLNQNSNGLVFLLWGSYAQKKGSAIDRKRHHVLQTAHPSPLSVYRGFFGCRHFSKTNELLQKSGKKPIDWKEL

Structure (SMILES): C=CC[C@@H]1/C=C(\C)C[C@H](C)C[C@H](OC)[C@H]2O[C@@](O)(C(=O)C(=O)N3CCCC[C@H]3C(=O)O[C@H](/C(C)=C/[C@@H]3CC[C@@H](O)[C@H](OC)C3)[C@H](C)[C@@H](O)CC1=O)[C@H](C)C[C@@H]2OC [FK506]
- binds less tightly than expected from summing the binding free energies of its component fragments [1]: about 3 kcal/mol

Structure (SMILES): CNCc1ccccc1 [N-methyl-benzyl amine]
- pKa [2]: 9.8

- free energy change more negative than DO (human UNG; MA1 compared with DO): -2.0 kcal/mol
Structure (SMILES): O=C(O)c1cccc(/C=N/OCCCNCc2cc(=O)[nH]c(=O)[nH]2)c1 [compound 6]

- ΔΔG of binding on switching amine to oxime linkages (human UNG; difference free energies relative to DA (27), Figure 4): -0.6 kcal/mol
Structure (SMILES): O=C(O)c1cccc(CNCCCO/N=C/c2cc(=O)[nH]c(=O)[nH]2)c1 [compound 22]
